Reference: US20140329863A1 (priority 2011, published 2014)
Values after ≈ are worked out from the molar mass of the structure shown. Where two headings read alike, the source gives them in different places.

Key:
[1] = "rat human hepatic microsomes", NADPH with UDPGA or PBS
[2] = physchem
[3] = Hepatic microsomal stability, human; details: for half-life at 1 μM: human, pH 7.4
[4] = Hepatic microsomal stability, mouse; details: for half-life at 1 μM: CD-1, mouse, pH 7.4
[5] = Multidose (three-day) pharmacokinetics in liquid diet in FVB mice; details: FVB, mouse, in vivo
[6] = Multiple-dose (three-day) pharmacokinetic studies in FVB mice, drug in liquid diet; assay type: in vivo, mouse; details: FVB, mouse, oral, 3 days in liquid diet, 40, 80, 130, 210 mg/kg/day
Description: Aminothiazole analog (e.g., 4.5 g of 27) was added to 15 mL of pure PEG400, vortexed and sonicated to ensure dissolution, then stored at −4° C. until needed. This highly concentrated PEG400 solution was subsequently diluted to final dosing concentrations, where the volume added was composed of homogenized solid rodent feed, cocoa (taste masking agent), and water. Wild-type FVB mice weigh ˜25 gm and typically drink 20 mL of liquid diet per day, allowing an estimate of daily drug consumption. A single dosing cohort consisted of three mice in a shared cage and liquid diet was provided at the start of the study in sufficient volume to last for the entire three-day trial (˜200 mL). At the end of the three-day dosing period, animals were euthanized by CO2, followed by collection of plasma (cardiac puncture) and removal of whole brain. Heparinized blood was centrifuged to separate plasma and both plasma and brain samples were stored at −80° C. prior to analysis. Plasma samples were prepared for analysis by precipitating proteins and reconstituting the remaining fraction with HPLC mobile phase. Brain samples were typically prepared by four-fold dilution with water after weighing, then homogenized using bead-beater or Polytron™ resulting in a highly concentrated solution that was further diluted with mobile phase as appropriate in preparation for bioanalytical analysis using LC-MS. Analysis was by LC-MS (Shimadzu dual-HPLC pumps, C18 analytical column, with detection using an Applied Biosystems API-4000 triple quadrupole mass spectrometer).
Ten compounds were selected from among the 34 2-AMTs for three-day multiple-dose PK studies at PO doses ranging from 40-210 mg/kg. Selection was based on diversity in potency, chemical structure, and a range of physicochemical properties. We used a liquid diet to facilitate easy drug administration, as well as serve as the daily source of all water and food. This approach was chosen because the mouse bioassay studies that would be used to assess drug effects on survival would be expected to run for 110 to 400 days, or more; gavage dosing for such a long period is not feasible and more stressful to mice. For the multiple-dose PK studies, 4.5 g of the 2-AMT analogs was added to 15 mL of pure PEG400, vortexed and sonicated to ensure dissolution, then stored at −4° C. until needed. This highly concentrated PEG400 solution was subsequently diluted to final dosing concentrations and added to the rodent liquid diet, cocoa (taste-masking agent), and water.
Wild-type FVB mice weigh ˜25 g and typically drink 20 mL of liquid diet per day, allowing an estimate of daily drug consumption. A single dosing cohort consisted of three mice in a shared cage and liquid diet was provided at the start of the study in sufficient volume (˜200 mL) to last for the entire three-day period. At the end of the dosing period, animals were euthanized by CO2, followed by collection of plasma (cardiac puncture) and removal of whole brain. Samples were processed and stored as described above for the 10 mg/kg single-dose studies.
Plasma and brain homogenate samples were extracted using a protein-precipitation method and analyzed by specific LC/MS/MS methods developed for each compound dosed in vivo. The analytical method accuracy and precision were monitored by analyzing quality control (QC) samples that were prepared by the same methods as the plasma or brain homogenate samples. The brain and plasma concentration data were used to calculate the maximal concentration (Cmax), area under the concentration-time curve (AUClast), and absolute bioavailability (% F) by noncompartmental analysis with sparse sampling performed using Phoenix WinNonlin 6.1 software (Pharsight, Mountain View, Calif.).

[7] = Hepatic microsomal stability, rat
[8] = system: PrP^Sc in dividing ScN2a-cl3 cells; assay type: cell-based, mouse
[9] = system: PrP^C in IMR32 cells; assay type: cell-based, human
[10] = system: T98G cells; test: cells; assay type: cell-based, human; details: calcein, T98G cells
[11] = system: IMR32 cells; assay type: cell-based, human
[12] = system: PrP^C in T98G cells; assay type: cell-based, human
[13] = cell culture media, plasma or biological fluid
[14] = 40 mg/kg, Plasma Concentration (Css), three-day dosing in liquid diet, plasma
[15] = 80 mg/kg, Brain Concentration (Css), three-day dosing in liquid diet, brain
[16] = 80 mg/kg, Plasma Concentration (Css), three-day dosing in liquid diet, plasma
[17] = 130 mg/kg, Brain Concentration (Css), three-day dosing in liquid diet, brain
[18] = 130 mg/kg, Plasma Concentration (Css), three-day dosing in liquid diet, plasma
[19] = 210 mg/kg, Brain Concentration (Css), three-day dosing in liquid diet, brain
[20] = 210 mg/kg, Plasma Concentration (Css), three-day dosing in liquid diet, plasma
[21] = Brain and plasma concentrations, 40, 80, 130 and 210 mg/kg/day for 3 days
[22] = brain, read-out: brain concentration
[23] = plasma, read-out: plasma concentration

In the case of O=[N+]([O-])c1ccc(O)cc1 [4-Nitrophenol, reference compound], the “T1/2, control incubations” value [1] is reported as 0.333 h.

In the case of COc1ccc(-c2csc(Nc3cc4ccccc4cn3)n2)cc1OC [IND46, [4-(3,4-Dimethoxy-phenyl)-thiazol-2-yl]-isoquinolin-3-yl-amine], the solubility ([2]; FaSSIF) is reported as 5 µM (≈ 1.82 µg/mL), the solubility [2, 13] is reported as 174 µM (≈ 63.2 µg/mL) and the solubility ([2]; pH 2 (HCl) buffer, pH 2, simulated gastric fluid) is reported as < 1 µM. The solubility ([2]; pH 7.4 (phosphate) buffer, pH 7.4, aqueous buffer) was < 1 µM, the “% remaining after a 60-min incubation, Human” value ([3]; human liver microsomes, 60-min incubation) was 83% and the half-life at 1 μM ([3]; human liver microsomes) was > 1 h. The half-life at 1 μM ([3]; liver microsomes) was > 1 h, the half-life at 1 μM ([4]; liver microsomes) was 1.25 h and the half-life at 1 μM ([4]; mouse liver microsomes) was > 1 h. For the same compound, the “% remaining after a 60-min incubation, Mouse” value ([4]; mouse liver microsomes, 60-min incubation) was 58%, the concentration at 3 days ([5]; 40 mg/kg, Brain Concentration (Css), three-day dosing in liquid diet, brain) was 30 ± 30 nM and the concentration at 3 days [5, 14] was 50 ± 20 nM. It also gave a concentration at 3 days [5, 15] of 60 ± 70 nM, a concentration at 3 days [5, 16] of 60 ± 30 nM and a concentration at 3 days [5, 17] of 140 ± 40 nM. It also gave a concentration at 3 days [5, 18] of 80 ± 40 nM, a concentration at 3 days [5, 19] of 320 ± 110 nM and a concentration at 3 days [5, 20] of 140 ± 30 nM. The concentration at 3 days [5, 21] was ≤ 1000 nM, the “solubility in FaSSIF (in words)” value (fasted-state simulated intestinal fluid) was “lower solubility” and the “solubility at pH 2.0 (in words)” value (pH 2 (HCl) buffer) was “lower solubility”. For the same compound, the concentration at 3 days [6, 22] was ≤ 1000 nM, the concentration at 3 days [6, 23] was ≤ 1000 nM and the half-life at 1 μM ([7]; Sprague-Dawley, rat, […], pH 7.4) was > 1 h. The “% remaining after a 60-min incubation, Rat” value ([7]; […], 60-min incubation) was 61% and the “t1/2 Rat (extrapolated)” value ([7]; rat microsomes, * extrapolated) was 83* min.

c1ccc2cc(Nc3nc(-c4cc5ccccc5o4)cs3)ncc2c1 [IND91, (4-Benzofuran-2-yl-thiazol-2-yl)-isoquinolin-3-yl-amine] gave a solubility [2, 13] of 151 µM (≈ 51.9 µg/mL), an EC50 ([8]; AMT analogs tested for potency) of 923 nM and an EC50 ([8]; Table 29, 2-AMT analogs tested for potency, usually n = 3 or more) of 923 nM. For the same compound, the concentration at 3 days [5, 14] was 260 ± 130 nM, the concentration at 3 days [5, 15] was 190 ± 90 nM and the concentration at 3 days [5, 16] was 1550 ± 360 nM. It also gave a concentration at 3 days [5, 17] of 260 ± 120 nM, a concentration at 3 days [5, 18] of 1740 ± 310 nM and a concentration at 3 days [5, 19] of 280 ± 40 nM. For the same compound, the concentration at 3 days [5, 20] was 3060 ± 560 nM, the concentration at 3 days [5, 21] was ≤ 1000 nM and the concentration at 3 days [6, 22] was ≤ 1000 nM. For the same compound, the concentration at 3 days [6, 23] was ≤ 1000 nM.

In the case of CC(=O)N1CCc2c([nH]c3ccccc23)C1c1ccc(Cl)cc1 (centres unmarked) [IND-0017998], the “% Inhibition: SPC (IMR32)” value [9] is reported as “MW: 324.8 % Inhibition: SPC (IMR32): 73 Calcein: 7 SPC (T98G): 74 Calcein: −19”, the “% Inhibition: Calcein (T98G)” value [10] is reported as −19% and the “% Inhibition: Calcein (IMR32)” value [11] is reported as 7%. The “% Inhibition: SPC (T98G)” value [12] was “MW: 324.8 % Inhibition: SPC (IMR32): 73 Calcein: 7 SPC (T98G): 74 Calcein: −19”.

With CCc1ccc(C2C(C#N)=C(N)Oc3cc(N(C)C)ccc32)cc1 (centres unmarked) [IND-0020681] the “% Inhibition: SPC (IMR32)” value [9] was “MW: 319.4 % Inhibition: SPC (IMR32): 48 Calcein: 39 SPC (T98G): 43 Calcein: 21”, the “% Inhibition: Calcein (T98G)” value [10] was 21% and the “% Inhibition: Calcein (IMR32)” value [11] was 39%. For the same compound, the “% Inhibition: SPC (T98G)” value [12] was “MW: 319.4 % Inhibition: SPC (IMR32): 48 Calcein: 39 SPC (T98G): 43 Calcein: 21”.

With COc1ccccc1C(=O)N1CCN(c2cccc(Cl)c2)CC1 [IND-0021750] the “% Inhibition: SPC (IMR32)” value [9] was “MW: 330.8 % Inhibition: SPC (IMR32): 44 Calcein: 25 SPC (T98G): 52 Calcein: 21”, the “% Inhibition: Calcein (T98G)” value [10] was 21% and the “% Inhibition: Calcein (IMR32)” value [11] was 25%. The “% Inhibition: SPC (T98G)” value [12] was “MW: 330.8 % Inhibition: SPC (IMR32): 44 Calcein: 25 SPC (T98G): 52 Calcein: 21”.

For Cc1cccc(Nc2nc(-c3ccncc3)cs2)c1 [IND-0022317], the “% Inhibition: SPC (IMR32)” value [9] was “MW: 267.4 % Inhibition: SPC (IMR32): 87 Calcein: 35 SPC (T98G): 65 Calcein: 5”, the “% Inhibition: Calcein (T98G)” value [10] was 5% and the “% Inhibition: Calcein (IMR32)” value [11] was 35%. For the same compound, the “% Inhibition: SPC (T98G)” value [12] was “MW: 267.4 % Inhibition: SPC (IMR32): 87 Calcein: 35 SPC (T98G): 65 Calcein: 5”.
